The values below come from US20240092784A1, “CONDENSED HETEROCYCLIC COMPOUND” (NISSAN CHEMICAL CORPORATION, priority 2020, published 2024).

Where two headings read alike, the source gives them in different places.

In this assay the target is human SPR (Homo sapiens (Human), UniProt P35270). The experiment in a line: Evaluation Example 2: Measurement of human SPR inhibitory activity (seven concentrations, sepiapterin absorbance at 420 nm). The assay is classed as biochemical. Summed up:
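Reactions ran 240 min at room temperature in 100 mM Tris-HCl pH 7.5 with 0.01% BSA. They contained tag-cleaved, E. coli-expressed full-length human SPR (diluted to 150 ng/mL), seven compound concentrations from 0.14 to 100 nM, and sepiapterin/NADPH added as a 120 μM/160 μM solution. Inhibition was calculated from sepiapterin absorbance at 420 nm.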

[1] abbreviates: Evaluation Example 2, seven concentrations 0.14 nM to 100 nM, 240 minutes at room temperature, read-out: IC50.
[2] abbreviates: sepiapterin absorbance, Table 41, read-out: concentration at 50% inhibition of human SPR (IC50).

Sequence of human SPR (P35270 whole entry): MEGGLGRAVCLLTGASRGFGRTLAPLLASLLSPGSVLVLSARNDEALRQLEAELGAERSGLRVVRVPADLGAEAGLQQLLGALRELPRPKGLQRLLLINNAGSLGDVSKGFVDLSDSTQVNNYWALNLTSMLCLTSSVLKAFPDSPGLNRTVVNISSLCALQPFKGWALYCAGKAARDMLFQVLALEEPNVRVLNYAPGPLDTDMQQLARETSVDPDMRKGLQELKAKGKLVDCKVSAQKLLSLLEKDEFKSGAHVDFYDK

With `Cc1nn(C)c(C)c1CNC(=O)c1cnn2c(O)c(C(=O)NC3CC3)c(=O)n(CC(C)C)c12` [Synthesis Example 223, N6-Cyclopropyl-7-hydroxy-4-isobutyl-5-oxo-N3-((1,3,5-trimethyl-1H-pyrazol-4-yl)methyl)-4,5-dihydropyrazolo[1,5-a]pyrimidine-3,6-dicarboxamide], the IC50 under setting [1] was determined as 1.12 nM.
The same measure, in the same setting: the same measure for `CC(C)Cn1c(=O)c(C(=O)NC2CC2)c(O)n2ncc(/C=C/C(=O)N3CCCC3)c12` [compound 452, (E)-N-Cyclopropyl-7-hydroxy-4-isobutyl-5-oxo-3-(3-oxo-3-(pyrrolidin-1-yl)prop-1-en-1-yl)-4,5-dihydropyrazolo[1,5-a]pyrimidine-6-carboxamide]: 0.83 nM; for `CC(C)Cn1c(=O)c(C(=O)NC2CC2)c(O)n2ncc(/C=C/C(=O)N3CCC(=O)C3)c12` [compound 516, (E)-N-Cyclopropyl-7-hydroxy-4-isobutyl-5-oxo-3-(3-oxo-3-(3-oxopyrrolidin-1-yl)prop-1-en-1-yl)-4,5-dihydropyrazolo[1,5-a]pyrimidine-6-carboxamide]: 0.61 nM; for `CC(C)(C)Cn1c(=O)c(C(=O)NC2CC2)c(O)n2nc(-c3n[nH]c4ncccc34)cc12` [Synthesis Example 306]: 9.43 nM.
Same read-out and setting: with `CC(C)Cn1c(=O)c(C(=O)NC2CC2)c(O)n2ncc(/C=C/C(=O)N3CCC[C@H](CO)C3)c12` [compound 528, (S,E)-N-Cyclopropyl-7-hydroxy-3-(3-(3-(hydroxymethyl)piperidin-1-yl)-3-oxoprop-1-en-1-yl)-4-isobutyl-5-oxo-4,5-dihydropyrazolo[1,5-a]pyrimidine-6-carboxamide] the figure was 0.85 nM.
On the same count and under the same terms, with `CC(C)(C)Cn1c(=O)c(C(=O)NC2CC2)c(O)n2nc(-c3c[nH]nc3N)cc12` [Synthesis Example 317, 2-(3-Amino-1H-pyrazol-4-yl)-N-cyclopropyl-7-hydroxy-4-neopentyl-5-oxo-4,5-dihydropyrazolo[1,5-a]pyrimidine-6-carboxamide] the figure was 1.34 nM.
On to `COC[C@@H]1COCCN1C(=O)/C=C/c1c(C)nn2c(O)c(C(=O)NC3CC3)c(=O)n(CC(C)(C)C)c12` [Synthesis Example 693, (R,E)-N-Cyclopropyl-7-hydroxy-3-(3-(3-(methoxymethyl)morpholino)-3-oxoprop-1-en-1-yl)-2-methyl-4-neopentyl-5-oxo-4,5-dihydropyrazolo[1,5-a]pyrimidine-6-carboxamide], for which the IC50 under setting [2] is 0.71 nM.
In the case of `CC(C)(C)Cn1c(=O)c(C(=O)NC2CC2)c(O)n2nc(-c3cncnc3)cc12` [Synthesis Example 288, N-Cyclopropyl-7-hydroxy-4-neopentyl-5-oxo-2-(pyrimidin-5-yl)-4,5-dihydropyrazolo[1,5-a]pyrimidine-6-carboxamide], under setting [1], the IC50 was determined as 1.37 nM.
Same read-out and setting: with `CC(C)(C)Cn1c(=O)c(C(=O)NC2CC2)c(O)n2nc(NC3CCCCC3)cc12` [Synthesis Example 343, 2-(Cyclohexylamino)-N-cyclopropyl-7-hydroxy-4-neopentyl-5-oxo-4,5-dihydropyrazolo[1,5-a]pyrimidine-6-carboxamide] the figure was 4.71 nM; with `C/C(=C\c1cnn2c(O)c(C(=O)NC3CC3)c(=O)n(CC(C)C)c12)C(=O)NC(C)C` [Synthesis Example 257, (E)-N-Cyclopropyl-7-hydroxy-4-isobutyl-3-(3-(isopropylamino)-2-methyl-3-oxoprop-1-en-1-yl)-5-oxo-4,5-dihydropyrazolo[1,5-a]pyrimidine-6-carboxamide], 1.01 nM.
With `CC(C)(C)Cn1c(=O)c(C(=O)NC2CC2)c(O)n2nc3c(c12)CN(C1CC(F)(F)C1)C(=O)N3` [Synthesis Example 410, N-Cyclopropyl-3-(3,3-difluorocyclobutyl)-8-hydroxy-5-neopentyl-2,6-dioxo-1,2,3,4,5,6-hexahydropyrazolo[1,5-a:3,4-d′]dipyrimidine-7-carboxamide], the IC50 under setting [1] is 1.5 nM.
Still for that read-out and setting: the same measure for `Cc1nn2c(O)c(C(=O)NC3CC3)c(=O)n(CC(C)C)c2c1/C=C/C(=O)N1CCOC[C@H]1c1ccccc1` [Synthesis Example 642, (R,E)-N-Cyclopropyl-7-hydroxy-4-isobutyl-2-methyl-5-oxo-3-(3-oxo-3-(3-phenylmorpholino)prop-1-en-1-yl)-4,5-dihydropyrazolo[1,5-a]pyrimidine-6-carboxamide]: 0.94 nM.
The same measure, in the same setting: the same measure for `CC(C)(C)Cn1c(=O)c(C(=O)NC2CC2)c(O)n2nc(Nc3cnc(C(C)(F)F)cn3)cc12` [Synthesis Example 344, N-Cyclopropyl-2-((5-(1,1-difluoroethyl)pyrazin-2-yl)amino)-7-hydroxy-4-neopentyl-5-oxo-4,5-dihydropyrazolo[1,5-a]pyrimidine-6-carboxamide]: 1.69 nM; for `Cc1nn2c(O)c(C(=O)NC3CC3)c(=O)n(CC(C)C)c2c1/C=C/C(=O)N1CCN(C)CC1` [compound 574, (E)-N-Cyclopropyl-7-hydroxy-4-isobutyl-2-methyl-3-(3-(4-methylpiperazin-1-yl)-3-oxoprop-1-en-1-yl)-5-oxo-4,5-dihydropyrazolo[1,5-a]pyrimidine-6-carboxamide]: 0.79 nM; for `CC(C)Cn1c(=O)c(C(=O)NC2CC2)c(O)n2ncc(/C=C/C(=O)N3CCc4cccnc43)c12` [compound 594, (E)-N-Cyclopropyl-3-(3-(2,3-dihydro-1H-pyrrolo[2,3-b]pyridin-1-yl)-3-oxoprop-1-en-1-yl)-7-hydroxy-4-isobutyl-5-oxo-4,5-dihydropyrazolo[1,5-a]pyrimidine-6-carboxamide]: 2.01 nM.
Regarding `Cc1nn2c(O)c(C(=O)NC3CC3)c(=O)n(CC(C)C)c2c1/C=C/C(=O)N1CCc2cncnc21` [Synthesis Example 752, (E)-N-Cyclopropyl-3-(3-(5,6-dihydro-7H-pyrrolo[2,3-d]pyrimidin-7-yl)-3-oxoprop-1-en-1-yl)-7-hydroxy-4-isobutyl-2-methyl-5-oxo-4,5-dihydropyrazolo[1,5-a]pyrimidine-6-carboxamide], the IC50 under setting [2] came out at 0.88 nM.
For `CC(C)Cn1c(=O)c(C(=O)NC2CC2)c(O)n2ncc(/C=C/C(=O)N(C)Cc3ccn(C)n3)c12` [compound 604, (E)-N-Cyclopropyl-7-hydroxy-4-isobutyl-3-(3-(methyl((1-methyl-1H-pyrazol-3-yl)methyl)amino)-3-oxoprop-1-en-1-yl)-5-oxo-4,5-dihydropyrazolo[1,5-a]pyrimidine-6-carboxamide], the IC50 under setting [1] was found to be 0.92 nM.
Still for that read-out and setting: with `CC(C)(C)Cn1c(=O)c(C(=O)NC2CC2)c(O)n2nc3c(c12)CC(=O)N3` [Synthesis Example 402, N-Cyclopropyl-7-hydroxy-4-neopentyl-2,5-dioxo-2,3,4,5-tetrahydro-1H-pyrrolo[2′,3′:3,4]pyrazolo[1,5-a]pyrimidine-6-carboxamide] the figure was 0.63 nM; with `CC(C)Cn1c(=O)c(C(=O)NC2CC2)c(O)n2ncc(/C=C/C(=O)N3CCO[C@H](C(F)(F)F)C3)c12` [compound 530, (S,E)-N-Cyclopropyl-7-hydroxy-4-isobutyl-5-oxo-3-(3-oxo-3-(2-(trifluoromethyl)morpholino)prop-1-en-1-yl)-4,5-dihydropyrazolo[1,5-a]pyrimidine-6-carboxamide], 1.14 nM.
On to `CC(C)Cn1c(=O)c(C(=O)NC2CC2)c(O)n2ncc(/C=C/C(=O)N3CCOc4cnccc43)c12` [Synthesis Example 728, (E)-N-Cyclopropyl-3-(3-(2,3-dihydro-1H-pyrido[3,4-b][1,4]oxazin-1-yl)-3-oxoprop-1-en-1-yl)-7-hydroxy-4-isobutyl-5-oxo-4,5-dihydropyrazolo[1,5-a]pyrimidine-6-carboxamide], for which, under setting [2], the IC50 was 1.07 nM.
On to `CC[C@@H]1COCCN1C(=O)/C=C/c1c(C)nn2c(O)c(C(=O)NC3CC3)c(=O)n(CC(C)C)c12` [compound 573, (R,E)-N-Cyclopropyl-3-(3-(3-ethylmorpholino)-3-oxoprop-1-en-1-yl)-7-hydroxy-4-isobutyl-2-methyl-5-oxo-4,5-dihydropyrazolo[1,5-a]pyrimidine-6-carboxamide], for which the IC50 under setting [1] came out at 0.88 nM.
The same measure, in the same setting: with `CC(C)(C)Cn1c(=O)c(C(=O)NC2CC2)c(O)n2nc(Nc3cnc(C(=O)NCC(F)F)cn3)cc12` [Synthesis Example 353, N-Cyclopropyl-2-((5-((2,2-difluoroethyl)carbamoyl)pyrazin-2-yl)amino)-7-hydroxy-4-neopentyl-5-oxo-4,5-dihydropyrazolo[1,5-a]pyrimidine-6-carboxamide] the figure was 0.82 nM.
Still for that read-out and setting: the same measure for `Cc1nn2c(O)c(C(=O)NC3CC3)c(=O)n(CC(C)C)c2c1/C=C/C(=O)N1CC2CCC(C1)O2` [compound 569, (E)-3-(3-(8-Oxa-3-azabicyclo[3.2.1]octan-3-yl)-3-oxoprop-1-en-1-yl)-N-cyclopropyl-7-hydroxy-4-isobutyl-2-methyl-5-oxo-4,5-dihydropyrazolo[1,5-a]pyrimidine-6-carboxamide]: 0.67 nM; for `CC(C)(C)Cn1c(=O)c(C(=O)NC2CC2)c(O)n2nc(-c3n[nH]cc3C#N)cc12` [Synthesis Example 292, 2-(4-Cyano-1H-pyrazol-3-yl)-N-cyclopropyl-7-hydroxy-4-neopentyl-5-oxo-4,5-dihydropyrazolo[1,5-a]pyrimidine-6-carboxamide]: 1.32 nM; for `Cc1nn2c(O)c(C(=O)NC3CC3)c(=O)n(CC(C)C)c2c1/C=C/C(=O)N1C[C@H](C)OC[C@H]1C` [Synthesis Example 646, N-Cyclopropyl-3-((E)-3-((2S,5R)-2,5-dimethylmorpholino)-3-oxoprop-1-en-1-yl)-7-hydroxy-4-isobutyl-2-methyl-5-oxo-4,5-dihydropyrazolo[1,5-a]pyrimidine-6-carboxamide]: 0.87 nM.
On the same count and under the same terms, with `CC(C)Cn1c(=O)c(C(=O)NC2CC2)c(O)n2ncc(CCc3ccc(C(F)(F)F)nc3)c12` [Synthesis Example 251, N-Cyclopropyl-7-hydroxy-4-isobutyl-5-oxo-3-(2-(6-(trifluoromethyl)pyridin-3-yl)ethyl)-4,5-dihydropyrazolo[1,5-a]pyrimidine-6-carboxamide] the figure was 1.74 nM.
